# In patent US8202856B2 (Merck Serono SA, priority 2007, dated 2012):
# Biological target: S1P1 receptor (Homo sapiens, UniProt P21453)
# Assay: 35S-GTPγS binding, membranes from CHO cells expressing S1P1
# Format: biochemical
# Conditions: CHO cell membranes expressing S1P1
# Procedure: Receptor binding assay: Membranes were prepared from CHO cells expressing S1P1 or S1P3 for use in ligand and 35S-GTPTS binding studies. Cells were suspended in 50 mM TRIS, pH 7.4, 2 mM EDTA, 250 mM Sucrose (buffer A) and 1× Complete protease inhibitor cocktail (Roche), and disrupted at 4° C. by nitrogen decompression using a cell disruption bomb (Parr Instrument). Following centrifugation at 1000 RPM for 10 min at 4° C., the supernatant was suspended in buffer A and centrifuged again at 19000 RPM for 60 min at 4° C. The pellet was then suspended in 10 mM HEPES, pH 7.4, 1 mM EDTA, 250 mM Sucrose (Buffer B), and 1× Complete EDTA-free protease inhibitor cocktail and homogenized using a potter. Membranes were flash frozen in liquid nitrogen and stored at −80° C. [33P]sphingosine 1-phosphate (3000 Ci/mmol; American Radiolabeled Chemicals, Inc.) was added to test compounds in DMSO. Membranes and WGA SPA beads (GE Healthcare) were added to give a final volume of 100 μl in 96-well plates with assay concentrations of […] [33P]sphingosine 1-phosphate (respectively for S1P1 or S1P3), 50 mM HEPES, pH 7.5, 5 mM MgCl2, 100 mM NaCl, 0.4% fatty acid-free BSA, 1-5 μg/well of proteins and 100 μg/well of WGA SPA beads. Binding was performed for 60 min at room temperature on a shaker and bound radioactivity was measured on a PerkinElmer 1450 MicroBeta counter. Specific binding was calculated by subtracting remaining radioactivity in the presence of 1000-fold excess of unlabeled S1P. Binding data were analyzed using the GraphPad Prism program.
# Measurements of ^35S-GTPγS Binding: Membranes (1 to 10 μg protein) prepared as described above, were incubated in 96-well Scintiplates (PerkinElmer) with test compounds diluted in DMSO, in 180 μl of 20 mM HEPES, pH 7.4, 10 mM MgCl2, 2 μg/well Saponin, 0.2% fatty acid free BSA (Assay buffer), 140 mM NaCl and 1.7 μM GDP. The assay was initiated with the addition of 20 μl of 1.5 nM [35S]-GTPγS (1100 Ci/mmol; GE Healthcare) in assay buffer. After 60 min incubation at 30° C. on a shaker, plates were centrifuged for 10 min at 2000 RPM. Supernatant was discarded and membrane bound radioactivity was measured on a PerkinElmer 1450 MicroBeta counter. Triplicate samples were averaged and expressed as response relative to S1P activation in absence of compound (n=2).
# S1P1 receptor, sequence (P21453 whole entry): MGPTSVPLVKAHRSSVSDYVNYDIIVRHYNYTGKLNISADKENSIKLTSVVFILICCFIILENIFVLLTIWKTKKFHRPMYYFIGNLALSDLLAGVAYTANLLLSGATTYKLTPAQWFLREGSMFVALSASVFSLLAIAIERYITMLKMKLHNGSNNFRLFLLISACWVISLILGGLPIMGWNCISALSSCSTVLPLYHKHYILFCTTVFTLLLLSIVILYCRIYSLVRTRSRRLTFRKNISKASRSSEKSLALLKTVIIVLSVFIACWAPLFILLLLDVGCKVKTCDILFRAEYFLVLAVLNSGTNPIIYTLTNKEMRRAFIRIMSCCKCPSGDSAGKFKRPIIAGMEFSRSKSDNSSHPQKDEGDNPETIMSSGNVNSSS
row,EC50 [nM],SMILES
1,49,"NC(=O)c1ccc(-c2noc(-c3nnn(-c4ccccc4F)c3-c3ccncc3)n2)cc1 [Example 73, 4-{5-[1-(2-fluorophenyl)-5-pyridin-4-yl-1H-1,2,3-triazol-4-yl]-1,2,4-oxadiazol-3-yl}benzamide]"
2,8,"Oc1ccc(-c2noc(-c3nnn(-c4ccccc4F)c3-c3ccncc3)n2)cc1 [Example 64, 4-{5-[1-(2-fluorophenyl)-5-pyridin-4-yl-1H-1,2,3-triazol-4-yl]-1,2,4-oxadiazol-3-yl}phenol]"
3,136,"Fc1ccccc1-n1nnc(-c2nc(-c3ccc(C4OCCO4)cc3)no2)c1-c1ccncc1 [Example 110, 4-[4-{3-[4-(1,3-dioxolan-2-yl)phenyl]-1,2,4-oxadiazol-5-yl}-1-(2-fluorophenyl)-1H-1,2,3-triazol-5-yl]pyridine]"
4,106,"Fc1ccccc1-n1nnc(-c2nc(-c3c(F)cccc3F)no2)c1-c1ccncc1 [Example 99, 4-[4-[3-(2,6-difluorophenyl)-1,2,4-oxadiazol-5-yl]-1-(2-fluorophenyl)-1H-1,2,3-triazol-5-yl]pyridine]"
5,11,"Fc1ccccc1-n1nnc(-c2nc(-c3ccc(Cn4cccn4)cc3)no2)c1-c1ccncc1 [Example 171, 4-(1-(2-fluorophenyl)-4-{3-[4-(1H-pyrazol-1-ylmethyl)phenyl]-1,2,4-oxadiazol-5-yl}-1H-1,2,3-triazol-5-yl)pyridine]"
6,31,"OCCNCc1ccc(-c2noc(-c3nnn(-c4ccccc4F)c3-c3ccncc3)n2)cc1 [Example 136, 2-[(4-{5-[1-(2-fluorophenyl)-5-pyridin-4-yl-1H-1,2,3-triazol-4-yl]-1,2,4-oxadiazol-3-yl}benzyl)amino]ethanol]"
7,17,"CC(C)NCc1ccc(-c2noc(-c3nnn(-c4ccccc4F)c3-c3ccncc3)n2)cc1 [Example 165, N-(4-{5-[1-(2-fluorophenyl)-5-pyridin-4-yl-1H-1,2,3-triazol-4-yl]-1,2,4-oxadiazol-3-yl}benzyl)propan-2-amine]"
8,23,"Oc1cccc(-c2noc(-c3nnn(-c4ccccc4F)c3-c3ccncc3)n2)c1 [Example 124, 3-{5-[1-(2-fluorophenyl)-5-pyridin-4-yl-1H-1,2,3-triazol-4-yl]-1,2,4-oxadiazol-3-yl}phenol]"
9,545,Fc1ccccc1-n1nnc(-c2nc(-c3ccc(CN4CCC(F)(F)CC4)cc3)no2)c1-c1ccncc1 [Example 161]
10,131,"Nc1ccc(-c2noc(-c3nnn(-c4ccccc4F)c3-c3ccncc3)n2)cn1 [Example 118, 5-{5-[1-(2-fluorophenyl)-5-pyridin-4-yl-1H-1,2,3-triazol-4-yl]-1,2,4-oxadiazol-3-yl}pyridin-2-amine]"
11,402,"Fc1ccccc1-n1nnc(-c2nc(-c3ccc(C(F)(F)F)cc3)no2)c1-c1ccncc1 [Example 109, 4-(1-(2-fluorophenyl)-4-{3-[4-(trifluoromethyl)phenyl]-1,2,4-oxadiazol-5-yl}-1H-1,2,3-triazol-5-yl)pyridine]"

# Further lines, the compound ahead of its results:
row,SMILES,EC50 [nM]
1,"Fc1ccccc1-c1noc(-c2nnn(-c3ccccc3F)c2Cc2ccccc2)n1 [Example 58, 5-[5-benzyl-1-(2-fluorophenyl)-1H-1,2,3-triazol-4-yl]-3-(2-fluorophenyl)-1,2,4-oxadiazole]",1160
2,"CN(C)Cc1cccc(-c2noc(-c3nnn(-c4ccccc4F)c3-c3ccncc3)n2)c1 [Example 94, 1-(3-{5-[1-(2-fluorophenyl)-5-pyridin-4-yl-1H-1,2,3-triazol-4-yl]-1,2,4-oxadiazol-3-yl}phenyl)-N,N-dimethylmethanamine]",226
3,"O=C(O)[C@@H]1CCCN1Cc1ccc(-c2noc(-c3nnn(-c4ccccc4F)c3-c3ccncc3)n2)cc1 [Example 159, 1-(4-{5-[1(2-fluorophenyl)-5-pyridin-4-yl-1H-1,2,3-triazol-4-yl]-1,2,4-oxadiazol-3-yl}benzyl)-L-proline]",574
4,"Fc1ccccc1-n1nnc(-c2nc(-c3cccnc3)no2)c1Cc1ccccc1 [Example 75, 3-{5-[5-benzyl-1-(2-fluorophenyl)-1H-1,2,3-triazol-4-yl]-1,2,4-oxadiazol-3-yl}pyridine]",665
5,"CC(=O)NC1CCN(Cc2ccc(-c3noc(-c4nnn(-c5ccccc5F)c4-c4ccncc4)n3)cc2)CC1 [Example 137, N-[1-(4-{5-[1-(2-fluorophenyl)-5-pyridin-4-yl-1H-1,2,3-triazol-4-yl]-1,2,4-oxadiazol-3-yl}benzyl)piperidin-4-yl]acetamide]",223
6,"COCc1c(-c2nc(-c3ccc(Cn4cncn4)cc3)no2)nnn1-c1ccccc1F [Example 176, 5-[1-(2-fluorophenyl)-5-(methoxymethyl)-1H-1,2,3-triazol-4-yl]-3-[4-(1H-1,2,4-triazol-1-ylmethyl)phenyl]-1,2,4-oxadiazole]",105
7,"O=C(O)c1ccc(-c2noc(-c3nnn(-c4ccccc4F)c3-c3ccccc3)n2)cc1F [Example 23, 2-Fluoro-4-{5-[1-(2-fluorophenyl)-5-phenyl-1H-1,2,3-triazole-4-yl]-1,2,4-oxadiazole-3-yl}benzoic acid]",646
8,"OCC1CCN(Cc2ccc(-c3noc(-c4nnn(-c5ccccc5F)c4-c4ccncc4)n3)cc2)CC1 [Example 139, [1-(4-{5-[1(2-fluorophenyl)-5-pyridin-4-yl-1H-1,2,3-triazol-4-yl]-1,2,4-oxadiazol-3-yl}benzyl)piperidin-4-yl]methanol]",118
9,"COc1cccc(-c2noc(-c3nnn(-c4ccccc4F)c3-c3ccccn3)n2)c1 [Example 70, 2-{1-(2-fluorophenyl)-4-[3-(3-methoxyphenyl)-1,2,4-oxadiazol-5-yl]-1H-1,2,3-triazol-5-yl}pyridine]",284
10,"Fc1ccccc1-n1nnc(-c2nc(-c3ccco3)no2)c1-c1ccncc1 [Example 89, 4-{1-(2-fluorophenyl)-4-[3-(2-furyl)-1,2,4-oxadiazol-5-yl]-1H-1,2,3-triazol-5-yl}pyridine]",1030
11,"COCc1c(-c2nc(-c3ccc(N)nc3)no2)nnn1-c1ccccc1F [Example 123, 5-{5-[1-(2-fluorophenyl)-5-(methoxymethyl)-1H-1,2,3-triazol-4-yl]-1,2,4-oxadiazol-3-yl}pyridin-2-amine]",475
12,"O=C(O)[C@H]1CC[C@@H](NCc2ccc(-c3noc(-c4nnn(-c5ccccc5F)c4-c4ccncc4)n3)cc2)C1 [Example 169, (1S, 3R)-3-(4-(5-(1-(2-fluorophenyl)-5-(pyridin-4-yl)-1H-1,2,3-triazol-4-yl)-1,2,4-oxadiazol-3-yl)benzylamino)cyclopentanecarboxylic acid]",8
13,"Cc1c(-c2nc(-c3cc(F)ccc3F)no2)nnn1-c1ccccc1Br [Example 3, 5-[1-(2-Bromophenyl)-5-methyl-1H-1,2,3-triazole-4-yl]-3-(2,5-difluorophenyl)-1,2,4-oxadiazole]",2720
14,"COc1cc(CCC(=O)O)ccc1-c1noc(-c2nnn(-c3ccccc3F)c2-c2ccccc2)n1 [Example 29, 3-(4-{5-[1-(2-Fluorophenyl)-5-phenyl-1H-1,2,3-triazole-4-yl]-1,2,4-oxadiazole-3-yl}-3-methoxyphenyl)propanoic acid]",1270
15,O=C(O)[C@H]1CC[C@@H](NCc2ccc(-c3noc(-c4nnn(-c5ccccc5F)c4-c4ccncc4)n3)cc2)CC1 [Example 163],80
16,"Fc1ccccc1-c1noc(-c2nnn(-c3ccccc3F)c2C2CC2)n1 [Example 85, 5-[5-cyclopropyl-1-(2-fluorophenyl)-1H-1,2,3-triazol-4-yl]-3-(2-fluorophenyl)-1,2,4-oxadiazole]",451
17,"COCc1c(-c2nc(-c3cccc(S(N)(=O)=O)c3)no2)nnn1-c1ccccc1F [Example 93, 3-{5-[1-(2-fluorophenyl)-5-(methoxymethyl)-1H-1,2,3-triazol-4-yl]-1,2,4-oxadiazol-3-yl}benzenesulfonamide]",754
18,"CC(C)c1c(-c2nc(-c3cc(F)ccc3F)no2)nnn1-c1ccccc1F [Example 63, 3-(2,5-difluorophenyl)-5-[1-(2-fluorophenyl)-5-isopropyl-1H-1,2,3-triazol-4-yl]-1,2,4-oxadiazole]",310
19,"CCN1CCc2ccc(-c3noc(-c4nnn(-c5ccccc5F)c4-c4ccncc4)n3)cc2C1 [Example 154, 2-ethyl-7-{5-[1-(2-fluorophenyl)-5-pyridin-4-yl-1H-1,2,3-triazol-4-yl]-1,2,4-oxadiazol-3-yl}-1,2,3,4-tetrahydroisoquinoline]",918
